Measurements as given in patent US20080021030A1, “Substituted Pyrazoles As Ppar Agonists” (priority 2003, published 2008).

Experiments:
hPPAR alpha = target: T1, hPPAR alpha (Homo sapiens, UniProt Q07869); test: Transient transfection (transactivation) assay in CV-1 cells, GAL4-PPAR LBD chimera, SPAP reporter; type: cell-based; settings: read-out: EC50 μM HPPARα
T1 construct: expressed in transfected cells; host or cells: CV-1 cells
T1 sequence (Q07869 239-466 limits assumed): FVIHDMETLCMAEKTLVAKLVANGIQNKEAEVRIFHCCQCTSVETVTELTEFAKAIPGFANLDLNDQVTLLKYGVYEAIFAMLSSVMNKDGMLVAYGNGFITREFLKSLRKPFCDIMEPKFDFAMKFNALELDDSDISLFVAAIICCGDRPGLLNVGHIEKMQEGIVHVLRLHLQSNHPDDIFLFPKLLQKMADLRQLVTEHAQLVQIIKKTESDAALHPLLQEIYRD
Procedure, shortened: (§1)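 CV-1 cells transiently co-transfected with GAL4 DBD–human PPAR LBD chimera plus 5×GAL4-site SPAP reporter and β-galactosidase; after 16 h, compound added in DME with 10% delipidated FCS for 24 h. SPAP activity normalised to β-galactosidase; values in μM.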

hPPAR delta = target: T2, hPPAR delta (Homo sapiens, UniProt Q03181); test: as above; type: cell-based; settings: read-out: EC50 μM HPPARδ
T2 construct: expressed in transfected cells; host or cells: CV-1 cells
T2 sequence (Q03181 211-439 limits assumed): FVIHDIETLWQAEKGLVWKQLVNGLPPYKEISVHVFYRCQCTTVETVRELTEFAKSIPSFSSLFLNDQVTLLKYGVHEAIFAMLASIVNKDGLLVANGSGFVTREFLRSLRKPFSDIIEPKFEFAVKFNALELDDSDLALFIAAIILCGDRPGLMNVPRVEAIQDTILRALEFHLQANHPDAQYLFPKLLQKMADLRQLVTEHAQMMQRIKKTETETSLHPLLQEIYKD
Procedure, shortened: as §1

hPPAR gamma = target: T3, hPPAR gamma (Homo sapiens, UniProt P37231); test: as above; type: cell-based; settings: read-out: EC50 μM HPPARγ
T3 construct: expressed in transfected cells; host or cells: CV-1 cells
T3 sequence (P37231 238-503 limits assumed): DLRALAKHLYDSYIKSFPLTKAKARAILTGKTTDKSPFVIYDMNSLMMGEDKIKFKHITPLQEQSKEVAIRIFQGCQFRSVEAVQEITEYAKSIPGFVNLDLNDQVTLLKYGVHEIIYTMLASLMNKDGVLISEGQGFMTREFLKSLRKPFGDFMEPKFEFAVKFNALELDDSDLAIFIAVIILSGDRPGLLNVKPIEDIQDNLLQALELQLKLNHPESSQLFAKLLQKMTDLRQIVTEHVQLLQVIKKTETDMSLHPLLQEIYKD
Procedure, shortened: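 CV-1 cells were transiently transfected with a GAL4 DBD–human PPARγ LBD chimera, a 5×GAL4-site SPAP reporter and β-galactosidase. After 16 h, the cells were exposed to compound in DME with 10% delipidated FCS for 24 h. Alkaline phosphatase and β-galactosidase activities were then measured in cell extracts.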

EC50 (hPPAR alpha) [µM] | EC50 (hPPAR delta) [µM] | EC50 (hPPAR gamma) [µM] | melting point [°C] | SMILES
0.894 | > 25 | 0.287 | 70 | C=CCOc1ccc(-c2cc(C(=O)NCc3ccc(OC(C)(C)C(=O)O)c(C)c3)n(C)n2)cc1 [Example 56, 2-methyl-2-[(2-methyl-4-{[({1-methyl-3-[4-(2-propen-1-yloxy)phenyl]-1H-pyrazol-5-yl}carbonyl)amino]methyl}phenyl)oxy]propanoic acid]
0.657 | > 8 | 0.118 | 72 | Cc1cc(CNC(=O)c2cc(-c3ccc(OCc4ccccc4)cc3)nn2C)ccc1OC(C)(C)C(=O)O [Example 57, 2-methyl-2-{[2-methyl-4-({[(1-methyl-3-{4-[(phenylmethyl)oxy]phenyl}-1H-pyrazol-5-yl)carbonyl]amino}methyl)phenyl]oxy}propanoic acid]
